Reference: patent publication US12018059B2, “Human amylin analog polypeptides and methods of use” (Intarcia Therapeutics, Inc., priority 2018, dated 2024)
Starred links: 1 amine or outer side, 2 acyl side, 3 side chain; linkers in the order of their positions; H or OH if unused. Positions of bridges follow the written chain, without caps; N, C: chain ends. Non-standard residues stand in square brackets, D forms with d. Residues, ends and D or L forms follow the SMILES beside them. Groups on a side chain read outwards from the residue. *: point of attachment. C17 diacid = O=C(O)CCCCCCCCCCCCCCCC(=O)*; γGlu = O=C(O)[C@H](CCC(=O)[*:2])N[*:1]; Palmitoyl = CCCCCCCCCCCCCCCC(=O)*

Assay: in vivo
Parameters: species or system Sprague-Dawley rats
Details: rat, iv, 0.033 mg/kg
Method in brief: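 Male Sprague-Dawley rats, non-fasted (n=3), given peptide in saline as 1-h IV or SC infusion at 0.033 mg/kg, or SC bolus at 0.3 mg/kg; jugular blood to 48 h into K2EDTA plus protease inhibitors. Plasma extracted by precipitation or WCX solid-phase extraction, quantified by UPLC-MS/MS against standards in matching rat plasma.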

Structure (SMILES) | Vd [L/kg] | clearance [mL/min/kg] | half-life [h] | Vd (male, Sprague-Dawley) [L/kg] | clearance (male, Sprague-Dawley) [mL/min/kg] | half-life (male, Sprague-Dawley) [h]
CCCCCCCCCCCCCCCC(=O)N[C@@H](CCC(=O)NCCCC[C@H](NC(=O)[C@H](CC(C)C)NC(=O)[C@H](CCC(=O)O)NC(=O)[C@H](CC(N)=O)NC(=O)[C@H](C)NC(=O)[C@H](CC(C)C)NC(=O)[C@H](CCCNC(=N)N)NC(=O)[C@H](CCC(N)=O)NC(=O)[C@@H](NC(=O)[C@H](C)NC(=O)[C@@H]1CSSC[C@H](NC(=O)[C@@H](N)CO)C(=O)N[C@@H](CC(N)=O)C(=O)N[C@@H]([C@@H](C)O)C(=O)N[C@@H](CO)C(=O)N[C@@H]([C@@H](C)O)C(=O)N1)[C@@H](C)O)C(=O)N[C@@H](CCCCN)C(=O)N[C@@H](CO)C(=O)N[C@@H](CO)C(=O)N[C@@H](CC(N)=O)C(=O)N[C@@H](CC(N)=O)C(=O)N[C@@H](Cc1ccccc1)C(=O)NCC(=O)N1CCC[C@H]1C(=O)N[C@H](C(=O)N[C@@H](CC(C)C)C(=O)N1CCC[C@H]1C(=O)N1CCC[C@H]1C(=O)N[C@H](C(=O)N[C@@H](CCCCN)C(=O)N[C@H](C(=O)NCC(=O)N[C@@H](CO)C(=O)N[C@@H](CCC(=O)O)C(=O)N[C@H](C(=O)N[C@@H](Cc1ccc(O)cc1)C(N)=O)[C@@H](C)O)C(C)C)[C@@H](C)O)[C@@H](C)CC)C(=O)O [Compound A10] (H-SCNTSTCATQRLANELK([γGlu-Palmitoyl])KSSNNFGPILPPTKVGSETY-NH2; disulfide 2-7) | 0.245 | 3.72 | 0.965 | – | – | –
CC[C@H](C)[C@H](NC(=O)[C@@H]1CCCN1C(=O)CNC(=O)[C@H](Cc1ccccc1)NC(=O)[C@H](CC(N)=O)NC(=O)[C@H](CC(N)=O)NC(=O)[C@H](CO)NC(=O)[C@H](CO)NC(=O)[C@H](CCCCN)NC(=O)[C@H](Cc1c[nH]cn1)NC(=O)[C@H](CCCCNC(=O)CCCCCCCCCCCCCCCC(=O)O)NC(=O)[C@H](CCC(=O)O)NC(=O)[C@H](CC(N)=O)NC(=O)[C@H](C)NC(=O)[C@H](CC(C)C)NC(=O)[C@H](CCCNC(=N)N)NC(=O)[C@H](CCC(N)=O)NC(=O)[C@@H](NC(=O)[C@H](C)NC(=O)[C@@H]1CSSC[C@H](NC(=O)[C@@H](N)CO)C(=O)N[C@@H](CC(N)=O)C(=O)N[C@@H]([C@@H](C)O)C(=O)N[C@@H](CO)C(=O)N[C@@H]([C@@H](C)O)C(=O)N1)[C@@H](C)O)C(=O)N[C@@H](CC(C)C)C(=O)N1CCC[C@H]1C(=O)N1CCC[C@H]1C(=O)N[C@H](C(=O)N[C@@H](CCCCN)C(=O)N[C@H](C(=O)NCC(=O)N[C@@H](CO)C(=O)N[C@@H](CCC(=O)O)C(=O)N[C@H](C(=O)N[C@@H](Cc1ccc(O)cc1)C(N)=O)[C@@H](C)O)C(C)C)[C@@H](C)O [Compound A79] (H-SCNTSTCATQRLANEK(C17 diacid)HKSSNNFGPILPPTKVGSETY-NH2; disulfide 2-7; N-terminus assumed) | – | – | – | 0.115 | 0.162 | 7.8

Continued, in another order:

Vd [L/kg] | clearance [mL/min/kg] | half-life [h] | Structure (SMILES) | Vd (male, Sprague-Dawley) [L/kg] | clearance (male, Sprague-Dawley) [mL/min/kg] | half-life (male, Sprague-Dawley) [h]
0.17 | 0.485 | 5.41 | CCCCCCCCCCCCCCCC(=O)N[C@@H](CCC(=O)N[C@@H](CCC(=O)NCCCC[C@@H](NC(=O)[C@H](CCC(=O)O)NC(=O)[C@H](CCC(N)=O)NC(=O)[C@H](C)NC(=O)[C@H](CC(C)C)NC(=O)[C@H](CCCNC(=N)N)NC(=O)[C@H](CCC(N)=O)NC(=O)[C@@H](NC(=O)[C@H](C)NC(=O)[C@@H]1CSSC[C@H](NC(=O)[C@@H](N)CO)C(=O)N[C@@H](CC(N)=O)C(=O)N[C@@H]([C@@H](C)O)C(=O)N[C@@H](CO)C(=O)N[C@@H]([C@@H](C)O)C(=O)N1)[C@@H](C)O)C(=O)N[C@@H](Cc1c[nH]cn1)C(=O)N[C@@H](CCCCN)C(=O)N[C@@H](CO)C(=O)N[C@@H](CO)C(=O)N[C@@H](CC(N)=O)C(=O)N[C@@H](CC(N)=O)C(=O)N[C@@H](Cc1ccccc1)C(=O)NCC(=O)N1CCC[C@H]1C(=O)N[C@H](C(=O)N[C@@H](CC(C)C)C(=O)N1CCC[C@H]1C(=O)N1CCC[C@H]1C(=O)N[C@H](C(=O)N[C@@H](CCCCN)C(=O)N[C@H](C(=O)NCC(=O)N[C@@H](CO)C(=O)N[C@@H](CCC(=O)O)C(=O)N[C@H](C(=O)N[C@@H](Cc1ccc(O)cc1)C(N)=O)[C@@H](C)O)C(C)C)[C@@H](C)O)[C@@H](C)CC)C(=O)O)C(=O)O [Compound A28] (H-SCNTSTCATQRLAQE[dK]([γGlu-γGlu-Palmitoyl])HKSSNNFGPILPPTKVGSETY-NH2; disulfide 2-7) | – | – | –
0.174 | 0.478 | 5.16 | CCCCCCCCCCCCCCCC(=O)N[C@@H](CCC(=O)N[C@@H](CCC(=O)N[C@@H](CCC(=O)NCCCC[C@@H](NC(=O)[C@H](CCC(=O)O)NC(=O)[C@H](CC(N)=O)NC(=O)[C@H](C)NC(=O)[C@H](CC(C)C)NC(=O)[C@H](CCCNC(=N)N)NC(=O)[C@H](CCC(N)=O)NC(=O)[C@@H](NC(=O)[C@H](C)NC(=O)[C@@H]1CSSC[C@H](NC(=O)[C@@H](N)CO)C(=O)N[C@@H](CC(N)=O)C(=O)N[C@@H]([C@@H](C)O)C(=O)N[C@@H](CO)C(=O)N[C@@H]([C@@H](C)O)C(=O)N1)[C@@H](C)O)C(=O)N[C@@H](Cc1c[nH]cn1)C(=O)N[C@@H](CCCCN)C(=O)N[C@@H](CO)C(=O)N[C@@H](CO)C(=O)N[C@@H](CC(N)=O)C(=O)N[C@@H](CC(N)=O)C(=O)N[C@@H](Cc1ccccc1)C(=O)NCC(=O)N1CCC[C@H]1C(=O)N[C@H](C(=O)N[C@@H](CC(C)C)C(=O)N1CCC[C@H]1C(=O)N1CCC[C@H]1C(=O)N[C@H](C(=O)N[C@@H](CCCCN)C(=O)N[C@H](C(=O)NCC(=O)N[C@@H](CO)C(=O)N[C@@H](CCC(=O)O)C(=O)N[C@H](C(=O)N[C@@H](Cc1ccc(O)cc1)C(N)=O)[C@@H](C)O)C(C)C)[C@@H](C)O)[C@@H](C)CC)C(=O)O)C(=O)O)C(=O)O [Compound A53] (H-SCNTSTCATQRLANE[dK]([γGlu-γGlu-γGlu-Palmitoyl])HKSSNNFGPILPPTKVGSETY-NH2; disulfide 2-7) | – | – | –
0.163 | 0.183 | 11.3 | CCCCCCCCCCCCCCCC(=O)N[C@@H](CCC(=O)N[C@@H](CCC(=O)N[C@@H](CCC(=O)N[C@@H](CCC(=O)N[C@@H](CCC(=O)NCCCC[C@H](NC(=O)[C@H](CCC(=O)O)NC(=O)[C@H](CC(N)=O)NC(=O)[C@H](C)NC(=O)[C@H](CC(C)C)NC(=O)[C@H](CCCNC(=N)N)NC(=O)[C@H](CCC(N)=O)NC(=O)[C@@H](NC(=O)[C@H](C)NC(=O)[C@@H]1CSSC[C@H](NC(=O)[C@@H](N)CO)C(=O)N[C@@H](CC(N)=O)C(=O)N[C@@H]([C@@H](C)O)C(=O)N[C@@H](CO)C(=O)N[C@@H]([C@@H](C)O)C(=O)N1)[C@@H](C)O)C(=O)N[C@@H](Cc1c[nH]cn1)C(=O)N[C@@H](CCCCN)C(=O)N[C@@H](CO)C(=O)N[C@@H](CO)C(=O)N[C@@H](CC(N)=O)C(=O)N[C@@H](CC(N)=O)C(=O)N[C@@H](Cc1ccccc1)C(=O)NCC(=O)N1CCC[C@H]1C(=O)N[C@H](C(=O)N[C@@H](CC(C)C)C(=O)N1CCC[C@H]1C(=O)N1CCC[C@H]1C(=O)N[C@H](C(=O)N[C@@H](CCCCN)C(=O)N[C@H](C(=O)NCC(=O)N[C@@H](CO)C(=O)N[C@@H](CCC(=O)O)C(=O)N[C@H](C(=O)N[C@@H](Cc1ccc(O)cc1)C(N)=O)[C@@H](C)O)C(C)C)[C@@H](C)O)[C@@H](C)CC)C(=O)O)C(=O)O)C(=O)O)C(=O)O)C(=O)O [Compound A14] (H-SCNTSTCATQRLANEK([γGlu-γGlu-γGlu-γGlu-γGlu-Palmitoyl])HKSSNNFGPILPPTKVGSETY-NH2; disulfide 2-7) | – | – | –
